The record followed here is patent US20240165264A1, “T CELL ACTIVATION” (The University of Birmingham, priority 2022, published 2024).

For test [1], the system named is CD4+ T cells from the Nr4a3-FT mouse. Description: Flow cytometry analysis of T cell activation markers after magnetic force application to MNP-bound cells. The format is cell-based. The settings on record: blockade of actin cytoskeletal dynamics. How it is done: (§1) Splenic tissue was sourced from Nr4a3—fluorescent timer (Nr4a3-FT) reporter mice or from Tg4 transgenic mice, kindly provided by the laboratories of Dr David Bending (University of Birmingham) or Professor David Wraith (University of Birmingham) respectively. CD4+ T cells were purified by negative selection as per the manufacturer's instructions (Invitrogen, magnisort mouse CD4+ enrichment kit, 8804-6821-74) and CD4+ T cell purity was ≥95% in all experiments. Isolated CD4+ T cells were treated with functionalized MNPs for 30 minutes on ice, to final concentrations of 5×10^5 cells and 50 μg/ml MNPs respectively. Cells were then washed three times in PBS by 5 minutes of centrifugation at 300 g, before resuspension at 1×10^6/ml and use in force application experiments.
(§2) Cells treated with MNPs were subjected to external magnetic force through use of the Magnetic Ion Channel Activation (MICA) platform for force application as previously described (Henstock et al., 2018; Hughes et al., 2008). […] In all experiments shown, oscillations were set at 1 Hz and the plate was positioned 3 mm away from the particles in the on position. Force was applied for time frames shown, before assessment of biological T cell activity as described herein.
Following force application for time frames indicated, cells were maintained in a 37° C. […]
(In general: A flow cytometer gives signals particle by particle.)

Another test deals with Nr4a3-FT CD4+ T cells. Description: Force induced TCR downregulation (TCRlo) by flow cytometry. Format: cell-based, mouse. The following applies: Latrunculin A 0.25 and 1 μM; cells with 250 nm particles and force. How it is done: as §1, §2
Where indicated, cells were treated with Latrunculin A (Tocris, C973) to final concentrations of 0.25 and 1 μM. […]

Take `C/C1=C/C(=O)O[C@@H]2C[C@@H](CC[C@H](C)/C=C\C=C\CC1)O[C@@](O)([C@@H]1CSC(=O)N1)C2` [Latrunculin A]: the “effect on force induced T cell activation” value in test [1] was “prevents TCR downregulation and T cell activation”. Further, in the test on Nr4a3-FT CD4+ T cells, the “effect on force induced TCR downregulation” value was “prevents force induced TCR downregulation”; the “effect on population of cells that are TCRlo and Nr4a3 positive” value is “prevents the establishment of a population of cells that are TCRlo and Nr4a3 positive”.
